“And” between values parts separate entries of the source, which are not always exact repeats. Equal entries are not always repeated. Inconclusive results and toxic doses are left out.
Tested on: BDF1 mice, P388 leukemia ip, median survival T/C
Assay: NCI In Vivo Anticancer Drug Screen. Data for tumor model P388 Leukemia (intraperitoneal) in B6D2F1 (BDF1) mice
Conditions: endpoint: median survival time, higher = longer survival
Outline: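 Antitumour effect was judged in vivo: survival in drug-treated mice, normalised to that of vehicle-dosed controls, gives the reported T/C.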

[1] = dose: 100.0 mg/kg/injection, schedule: Q04DX003 (ip), vehicle: saline with Tween-80
[2] = dose: 50.0 mg/kg/injection, schedule: Q01DX009 (ip), vehicle: Klucel (hydroxypropylcellulose) (HPC)
[3] = dose: 100.0 mg/kg/injection, schedule: Q01DX009 (ip), vehicle: Klucel (hydroxypropylcellulose) (HPC)
[4] = dose: 200.0 mg/kg/injection, schedule: Q01DX009 (ip), vehicle: Klucel (hydroxypropylcellulose) (HPC)
[5] = dose: 100.0 mg/kg/injection, schedule: Q01DX009 (ip), vehicle: saline with Tween-80

Q: For CCO/C=C1\SC(=S)N(c2cccc(OC)c2)C1=O, which T/C [1] is on record?
A: The T/C was 122 % of control.

Q: How did the T/C (dose: 50.0 mg/kg/injection, schedule: Q01DX009 (ip), vehicle: acetone) turn out when CCOC/C(C)=C/Cl was run?
A: Its T/C is 104 % of control.

Q: And the T/C (dose: 100.0 mg/kg/injection, schedule: Q01DX009 (ip), vehicle: acetone)?
A: Its T/C is 116 % of control.

Q: And the T/C (dose: 200.0 mg/kg/injection, schedule: Q01DX009 (ip), vehicle: acetone)?
A: Its T/C is 112 % of control.

Q: What does the source list for CC(=O)C1C(=O)OC2(C)C(=O)C3=COC(/C=C\C(C)=C/C(C)C)=CC3=CC12 (stereo not drawn)?
A: T/C (dose: 75.0 mg/kg/injection, schedule: Q01DX009 (ip), vehicle: saline with Tween-80): 107 % of control; T/C (dose: 150.0 mg/kg/injection, schedule: Q01DX009 (ip), vehicle: saline with Tween-80): 151 % of control

Q: C=C1CCN2CCCC12 (stereo not drawn) was tested. Which T/C (dose: 20.0 mg/kg/injection, schedule: Q01DX010 (ip), vehicle: carboxymethylcellulose (CMC)) did it give?
A: Its T/C is 110 % of control.

Q: What about the T/C (dose: 40.0 mg/kg/injection, schedule: Q01DX010 (ip), vehicle: carboxymethylcellulose (CMC)) of the same compound?
A: The T/C was 100 % of control.

Q: And the T/C (dose: 80.0 mg/kg/injection, schedule: Q01DX010 (ip), vehicle: carboxymethylcellulose (CMC))?
A: The T/C was 110 % of control.

Q: Which T/C (dose: 6.25 mg/kg/injection, schedule: Q01DX009 (ip), vehicle: Klucel (hydroxypropylcellulose) (HPC)) does the source give for c1ccc2c(c1)C1c3cccc[n+]3C2CC1n1c2ccccc2c2ccccc21 (stereo not drawn) here?
A: The T/C was 100 % of control.

Q: What about the T/C (dose: 12.5 mg/kg/injection, schedule: Q01DX009 (ip), vehicle: Klucel (hydroxypropylcellulose) (HPC)) of the same compound?
A: The T/C was 100 % of control and 108 % of control.

Q: What about the T/C (dose: 16.0 mg/kg/injection, schedule: Q01DX009 (ip), vehicle: Klucel (hydroxypropylcellulose) (HPC)) of the same compound?
A: The T/C was 100 % of control.

Q: What about the T/C (dose: 25.0 mg/kg/injection, schedule: Q01DX009 (ip), vehicle: Klucel (hydroxypropylcellulose) (HPC)) of the same compound?
A: Its T/C is 87 % of control and 113 % of control.

Q: What about the T/C [2] of the same compound?
A: Its T/C is 91 % of control.

Q: What about the T/C [3] of the same compound?
A: The T/C was 100 % of control.

Q: Which T/C [2] does the source give for COC(=O)/C(C=Nc1ccccc1)=C(/C)O here?
A: The T/C was 112 % of control.

Q: And the T/C [3]?
A: Its T/C is 103 % of control.

Q: And the T/C [4]?
A: The T/C was 108 % of control.

Q: How did the T/C (dose: 75.0 mg/kg/injection, schedule: Q01DX010 (ip), vehicle: saline with Tween-80) turn out when C=CCCCCC/C=C/CCCCCC was run?
A: The T/C was 90 % of control.

Q: What about the T/C (dose: 150.0 mg/kg/injection, schedule: Q01DX010 (ip), vehicle: saline with Tween-80) of the same compound?
A: Its T/C is 122 % of control.

Q: Which results are given for COc1cc(Nc2nc(N)ncc2N)cc(OC)c1OC?
A: T/C (dose: 100.0 mg/kg/injection, schedule: Q01DX001 (ip), vehicle: saline with Tween-80): 91 % of control; T/C (dose: 200.0 mg/kg/injection, schedule: Q01DX001 (ip), vehicle: saline with Tween-80): 91 % of control; T/C (dose: 400.0 mg/kg/injection, schedule: Q01DX001 (ip), vehicle: saline with Tween-80): 100 % of control

Q: Which T/C (dose: 25.0 mg/kg/injection, schedule: Q04DX003 (ip), vehicle: saline with Tween-80) does the source give for Cc1ccc(C)c(C(C)NC2=NCCO2)c1 (stereo not drawn) here?
A: The T/C was 90 % of control.

Q: What about the T/C (dose: 50.0 mg/kg/injection, schedule: Q04DX003 (ip), vehicle: saline with Tween-80) of the same compound?
A: The T/C was 90 % of control.

Q: For COC(=O)CNC(=O)C(Cc1ccc(OCc2ccccc2)cc1)NC(=O)OC(C)(C)C (stereo not drawn), which T/C [1] is on record?
A: The T/C was 105 % of control.

Q: What about the T/C (dose: 200.0 mg/kg/injection, schedule: Q04DX003 (ip), vehicle: saline with Tween-80) of the same compound?
A: Its T/C is 120 % of control.

Q: And the T/C (dose: 400.0 mg/kg/injection, schedule: Q04DX003 (ip), vehicle: saline with Tween-80)?
A: Its T/C is 120 % of control.

Q: What does the source list for Cc1cccc(N2CCN(CCC#N)CC2)c1?
A: T/C (dose: 25.0 mg/kg/injection, schedule: Q01DX009 (ip), vehicle: saline with Tween-80): 91 % of control; T/C (dose: 50.0 mg/kg/injection, schedule: Q01DX009 (ip), vehicle: saline with Tween-80): 95 % of control; T/C [5]: 91 % of control

Q: Which T/C [5] does the source give for COc1cc(NC(=O)CC(C)=O)c(OC)cc1Cl here?
A: The T/C was 95 % of control.

Q: What about the T/C (dose: 200.0 mg/kg/injection, schedule: Q01DX009 (ip), vehicle: saline with Tween-80) of the same compound?
A: Its T/C is 100 % of control.

Q: What about the T/C (dose: 400.0 mg/kg/injection, schedule: Q01DX009 (ip), vehicle: saline with Tween-80) of the same compound?
A: The T/C was 104 % of control.

Q: Which T/C [3] does the source give for O=C1NC(c2ccccc2Cl)Nc2ccccc21 (stereo not drawn) here?
A: The T/C was 100 % of control and 115 % of control.

Q: And the T/C [4]?
A: Its T/C is 115 % of control and 120 % of control.

Q: Nc1ccccc1-c1ccccc1N was tested. Which T/C (dose: 100.0 mg/kg/injection, schedule: Q04DX003 (ip), vehicle: Klucel (hydroxypropylcellulose) (HPC)) did it give?
A: Its T/C is 100 % of control.

Q: And the T/C (dose: 200.0 mg/kg/injection, schedule: Q04DX003 (ip), vehicle: Klucel (hydroxypropylcellulose) (HPC))?
A: The T/C was 90 % of control.
